{
  "source": "patent US9689042B2",
  "about": "“Use of glycolytic pathways for inhibiting or measuring oncogenic signaling” (The Regents of the University of California, priority 2012, dated 2017)",
  "key": {"T4-2 cells [1]": {"system": "T4-2 cells", "conditions": "T4-2 cells, 3D lrECM", "description": "(§1) HMT-3522 cells were cultured on tissue culture plastic (2D) and in 3D lrECM gels with H14 medium, a 1:1 mix of DMEM/F12 (UCSF Cell Culture Facility) supplemented with 250 ng/ml insulin, 10 μg/ml transferrin, 2.6 ng/ml sodium selenite, 0.1 nM β-estradiol, 1.4 μM hydrocortisone and 5 μg/ml prolactin but no serum. S1 cells were additionally supplemented with 10 ng/ml EGF. MDA-MB-231 and HCC70 cells were cultured in DMEM and RPMI1640, respectively, and were supplemented with 10% fetal bovine serum (FBS).\n(§2) For 3D lrECM cultures, S1 and T4-2 cells were seeded at 840,000 and 600,000 cells per cm3 respectively in lrECM gel (Cultrex), overlaid with H14 medium. MDA-MB-231 and HCC70 cells were seeded at 625,000 cell per cm3 and overlaid with H14 medium supplemented with 1% FBS. Cells were used for each assay after 10 days, unless otherwise indicated.\nPieces of lrECM gel containing cell colonies were suspended in approximately the same volume of phosphate buffered saline (PBS) and directly spread on glass slides. After brief air-drying, colonies were fixed with 3.7% paraformaldehyde (PFA) in PBS at room temperature (RT) for 10 min, washed with PBS containing 0.1 mM glycine, and permeabilized with 1:1 methanol/acetone at −20° C. for 10 min. After blocking with IF buffer (0.2% Triton X-100, 0.1% BSA [radioimmunoassay grade], 0.05% Tween 20, 7.7 mM NaN3 in PBS) containing 10% goat serum and 1% goat F(ab′)2 anti-mouse immunoglobulin G (IgG; Caltag) at RT for 30 min, colonies were stained with anti-α6 integrin antibody (Chemicon International) at 4° C. overnight. Colonies were washed extensively with IF buffer, and stained with Alexa 568-labeled anti-rat IgG antibody at RT for 2 hr. Colonies were washed with IF buffer again, and nuclei were stained with DAPI at RT for 10 min. Slides were briefly washed with PBS and mounted with 50% glycerol in PBS.\nTo test whether increased glucose metabolism itself is required for oncogenic signaling events, we utilized 3D lrECM cultures of HMT-3522, a breast cancer progression series which includes non-malignant (S1) and malignant (T4-2) human breast epithelial cells from the same individual (Briand et al., 1987; Petersen et al., 1992; Rizki et al., 2008). Using these cells, we have described the involvement and reciprocity of multiple signaling pathways including EGFR, β1 integrin, PI3K-Akt and MEK-ERK in oncogenic events (Beliveau et al., 2010; Bissell et al., 2005). […] We thus used this “phenotypic reversion” of the cancer cells as an assay to examine how the signaling integration plan of the breast acini could involve glucose metabolism."}, "[2]": {"system": "S1 cells infected with GLUT3-HA-encoding lentivirus", "experiment": "3D lrECM culture of S1 cells overexpressing GLUT3", "assay_type": "cell-based, human", "conditions": "S1 cells over-expressing GLUT3-HA, 2DG 4 mM", "excerpt": "HIV 5′ LTR sequence in pTRIPZ vector (Open Biosystems) was removed by FspI-BbvCI digestion to replace with sequence containing chimeric CMV promoter-HIV 5′ LTR. CMV promoter was amplified by PCR from pcDNA3 (Invitrogen), fused to sequence containing partial HIV 5′ LTR sequence. The resulting intermediate vector, pTRIPZ-OY (optimal yield) was digested with BbvCI and NotI, to remove sequence containing TRE-minCMV promoter, turboRFP, UbqC promoter and rtTA3 (described in the manual provided by the manufacturer). The sequences containing EF1α/HTLV hybrid promoter and multiple cloning sites were removed from pCDH-EF1-MCS-T2A-Puro vector (System Bioscience) by digestion with the same restriction enzymes, and ligated into the digested pTRIPZ-OY vector, resulting in pLETIP vector. GLUT3 cDNA fused to C-terminal HA tag was amplified from total cDNA of T4-2 cells by PCR. The primers used were as follows: 5′-[…]-3′ (SEQ ID NO: 9) and 5′-[…] TTAGCA-3′ (SEQ ID NO: 10). The amplified cDNA was digested with BamHI and XmaI, and ligated into the same sites of pBluescriptII SK(−) vector for validating the sequence. GLUT3-HA cDNA was then digested with BamHI and SmaI, and ligated into pLETIP vector digested with NotI, blunted with T4 polymerase and further digested with BamHI, resulting in pLETIP GLUT3-HA vector. […]"}, "EGFR, ITGB1, GLUT3 mRNA": {"system": "EGFR, ITGB1, GLUT3 mRNA", "experiment": "Quantitative PCR of EGFR, ITGB1 and GLUT3 mRNA in T4-2 cells", "assay_type": "cell-based, human", "conditions": "3D lrECM, normalized to 18S ribosomal RNA", "description": "First strand cDNA pools of S1, T4-2 and reverted T4-2 cells were obtained from total RNA of each sample by using SuperScript II (Invitrogen). For each sample, reverse transcription was carried out with random hexamer and with oligo dT primer following the manufacturer's instruction, and the two reactions were mixed in a ratio of 9:1. Expression levels of EGFR, ITGB1, GLUT3 and 18S ribosomal RNA (used as a control) were quantified in LightCycler system (Roche) using QuantiTect SYBR Green PCR Kits (QIAGEN) and the reverse transcription mixtures. Expression levels of EGFR, ITGB1, GLUT3 were normalized to that of 18S ribosomal RNA."}, "[3]": {"system": "EGFR, β1 integrin, Akt, MEK, GLUT3, glycolytic enzymes in T4-2 cells", "experiment": "Western blots of signaling intermediates, GLUT3 and metabolic enzymes in 3D lrECM cultures of T4-2 cells", "assay_type": "cell-based, human", "conditions": "T4-2 cells", "description": "Cell colonies were separated from lrECM gels by shaking in PBS containing 5 mM EDTA and the proteinase inhibitor cocktail set I (Calbiochem) on ice for 30 min. Cells were lysed in lysis buffer (1% NP-40, 1% deoxycholate, 2% SDS, 150 mM NaCl, 20 mM Tris-HCl [pH 7.4] plus 5 mM EDTA and protease inhibitor cocktail set I and phosphatase inhibitor cocktail set I [Calbiochem]) and sonicated three times for 30 sec each. Proteins were separated by SDS-PAGE, transferred to nitrocellulose membranes, and probed with antibodies against the following proteins: phosphorylated MEK, MEK, phosphorylated Akt, Akt, phosphorylated AMPK, AMPK, p70S6K, phosphorylated p70S6K, CHOP, EPAC1 (Cell Signaling), β1 integrin, EGFR, activated EGFR, HIF-1α, (Chemicon International), PFKP (Abgent), GAPDH, GLUT3 (GeneTex), LDHA, PDHE1α, DLAT, DLD, HIF-3α, Rap1, sAC, EPAC2, OGT, Lamin A/C (Santa Cruz Biotechnology), Aldolase (Polysciences), GFPT (ProteinTech Group), HIF-2α (Abcam), and HA-tag (Covance). After probing with HRP-conjugated secondary antibodies, blots were developed using SuperSignal West Femto chemiluminescence reagent (Pierce Biotechnology). Images were captured using Fluor Chem 8900 imager (Alpha Innotech)."}, "T4-2 cells [4]": {"system": "T4-2 cells", "experiment": "Mitochondrial activity (MitoTracker oxidation) assay in 3D lrECM", "assay_type": "cell-based, human", "description": "Cells suspended in 200 μl lrECM were seeded in 12 well glass-bottom plates (14 mm diameter; MatTek Corporation). Gels were overlaid with 500 μl H14 media and cultured for 10 days before each assay unless otherwise described.\nFor mitochondrial activity, we slightly modified the method described previously (Morici et al., 2007). Briefly, cells were incubated with 2 μM MitoTracker® Orange CM-H2 TMRos (Invitrogen) for 1 hour and fixed with PFA as above. Cells were counterstained with Hoechst 33342 (Invitrogen), which is known also to bind to DNA stoichiometrically, then MitoTracker and Hoechst staining were measured by taking z-section images from top to bottom of the gels using confocal microscopy.\nIn each assay, one well, containing only lrECM, was made for background measurements. Glucose uptake measured by 2DG uptake, lactate production and MitoTracker staining were normalized using total DNA levels, and presented relative to that of control (either S1 or non-treated T4-2 cells)."}, "S1 cells": {"system": "S1 cells", "experiment": "3D lrECM culture of non-malignant S1 cells: acinar morphology and growth", "assay_type": "cell-based, human", "conditions": "2DG 4 mM, OGM 4 ng/ml", "description": "as §1, §2\nPieces of lrECM gel containing cell colonies were suspended in approximately the same volume of phosphate buffered saline (PBS) and directly spread on glass slides. After brief air-drying, colonies were fixed with 3.7% paraformaldehyde (PFA) in PBS at room temperature (RT) for 10 min, washed with PBS containing 0.1 mM glycine, and permeabilized with 1:1 methanol/acetone at −20° C. for 10 min. […]"}, "[5]": {"conditions": "same inhibitor concentrations as E1"}},
  "note": "“Also recorded” adds a separate entry of the source.",
  "data": [
    {"molecule": "O=CC[C@@H](O)[C@H](O)[C@H](O)CO", "note": "[2DG, 2-deoxy-D-glucose]", "values": [
      {"measurement": "phenotypic reversion of the malignant phenotype", "setting": "T4-2 cells [1]; 2DG 4 mM, IA 20 μM, OX 50 mM, Azs 20 μM, DON 20 μM, BADGP 5 mM, TM 10 ng/ml, OGM 4 ng/ml, Rapa 0.01-1.0 μM", "value": "induced phenotypic reversion; also recorded: do induce phenotypic reversion"},
      {"measurement": "basal polarity / organized acinar structures", "setting": "T4-2 cells [1]; [5]", "value": "re-establishment of basally polarized acini"},
      {"measurement": "growth / proliferation (cell numbers at the colony mid-section, EdU incorporation)", "setting": "T4-2 cells [1]; [5]", "value": "growth arrest"},
      {"measurement": "reversal of the disorganized phenotype caused by GLUT3 over-expression", "setting": "[2]", "value": "could be reversed"},
      {"measurement": "mRNA expression of EGFR, β1 integrin and GLUT3", "setting": "EGFR, ITGB1, GLUT3 mRNA", "value": "effectively suppressed"},
      {"measurement": "expression of ER stress marker CHOP", "setting": "[3]; 3D cultures, 2DG 4 mM", "value": "unchanged"},
      {"measurement": "phosphorylation of AMPK or S6K", "setting": "[3]; 3D cultures, 2DG 4 mM", "value": "did not affect"},
      {"measurement": "expression of GLUT3 and the glycolytic enzymes", "setting": "[3]; 3D lrECM, Western blot", "value": "dramatic down-regulation"},
      {"measurement": "expression of PDC components", "setting": "[3]; 3D lrECM, Western blot", "value": "elevated"},
      {"measurement": "levels and/or activities of EGFR, β1 integrin, Akt and MEK (oncogenic signaling)", "setting": "[3]; 3D lrECM, Western blot", "value": "decrease"},
      {"measurement": "mitochondrial activity (oxidation)", "setting": "T4-2 cells [4]", "value": "essentially unaffected"},
      {"measurement": "acinar morphology, basal polarity and growth rate of non-malignant cells", "setting": "S1 cells", "value": "altered neither the acinar morphology nor the growth rate"}
    ]}
  ]
}
